ChEMBL document CHEMBL1138685, “Molecular recognition in purinergic receptors. 2. Diastereoselectivity of the h-P2Y1-receptor” (J Med Chem, 2004)
pEC50: −log10 of the molar value.

Target: P2Y purinoceptor 1 (Homo sapiens) (UniProt P47900)
Experiment: Concenthumanion required for calcium mobilization at human purinergic 2Y1 receptor expressed in HEK 293 cells

P2Y purinoceptor 1 (Homo sapiens), sequence (P47900 whole entry, looked up): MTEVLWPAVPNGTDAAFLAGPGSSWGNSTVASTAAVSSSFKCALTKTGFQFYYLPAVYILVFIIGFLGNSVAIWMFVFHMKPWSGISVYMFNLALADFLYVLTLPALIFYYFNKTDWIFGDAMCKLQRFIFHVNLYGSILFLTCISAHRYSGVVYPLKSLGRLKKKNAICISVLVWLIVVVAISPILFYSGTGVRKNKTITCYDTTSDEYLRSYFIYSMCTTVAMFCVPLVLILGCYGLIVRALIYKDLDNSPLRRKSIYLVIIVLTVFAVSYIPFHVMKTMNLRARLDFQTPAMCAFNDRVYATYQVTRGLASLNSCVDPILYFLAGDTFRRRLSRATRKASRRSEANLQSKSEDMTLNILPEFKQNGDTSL

pEC50 | SMILES
7.70 | CSc1nc(N)c2ncn(C3O[C@H](CO[P@@](O)(=S)OP(=O)(O)OP(=O)(O)O)[C@@H](O)[C@H]3O)c2n1 (stereo partly specified)
9.00 | CSc1nc(N)c2ncn(C3O[C@H](CO[P@](O)(=S)OP(=O)(O)OP(=O)(O)O)[C@@H](O)[C@H]3O)c2n1 (stereo partly specified)
7.28 | BP(=O)(OC[C@H]1O[C@@H](n2cnc3c(N)nc(SC)nc32)[C@H](O)[C@@H]1O)OP(=O)(O)OP(=O)(O)O (stereo partly specified)
9.00 | CSc1nc(N)c2ncn([C@@H]3O[C@H](COP(=O)(O)OP(=O)(O)OP(=O)(O)O)[C@@H](O)[C@H]3O)c2n1

SMILES | pEC50
Nc1ncnc2c1ncn2C1O[C@H](CO[P@@](O)(=S)OP(=O)(O)OP(=O)(O)O)[C@@H](O)[C@H]1O (stereo partly specified) | 7.12
Nc1ncnc2c1ncn2C1O[C@H](CO[P@](O)(=S)OP(=O)(O)OP(=O)(O)O)[C@@H](O)[C@H]1O (stereo partly specified) | 8.03
